Conditions: human gut metagenome, 24 h, 2 µM
Further: call rule not given here.

Bacterial Biotransformation	Compound
Compound NOT metabolized	Cc1ccc(-c2cc(C(F)(F)F)nn2-c2ccc(S(N)(=O)=O)cc2)cc1 [CELECOXIB]
Compound metabolized	CC(=O)OCC(=O)[C@@]12N=C(C)O[C@@H]1C[C@H]1[C@@H]3CCC4=CC(=O)C=C[C@]4(C)[C@H]3[C@@H](O)C[C@@]12C [DEFLAZACORT]

Conditions: human gut metagenome, 24 h, 2 µM
Remark: another data set of the same source

Bacterial Biotransformation	Compound
Compound metabolized	Cc1ccc(-c2cc(C(F)(F)F)nn2-c2ccc(S(N)(=O)=O)cc2)cc1 [CELECOXIB]
Compound metabolized	CC(=O)OCC(=O)[C@@]12N=C(C)O[C@@H]1C[C@H]1[C@@H]3CCC4=CC(=O)C=C[C@]4(C)[C@H]3[C@@H](O)C[C@@]12C [DEFLAZACORT]

Assay: (§1) The drug is tested on Z-025 corresponding to rabbit gut metagenome with ENA study accession number: PRJEB37062 and ENA sample accession number: ERS12561824 for biotransformation under anaerobic condition. The drug concentrations were measured over 9 timepoints collected between 0 and 24 hours of incubation by liquid-chromatography-coupled mass spectrometry (LC–MS)
Conditions: 2 µM

Bacterial Biotransformation	Compound
Compound NOT metabolized	Cc1ccc(-c2cc(C(F)(F)F)nn2-c2ccc(S(N)(=O)=O)cc2)cc1 [CELECOXIB]
Compound metabolized	CC(=O)OCC(=O)[C@@]12N=C(C)O[C@@H]1C[C@H]1[C@@H]3CCC4=CC(=O)C=C[C@]4(C)[C@H]3[C@@H](O)C[C@@]12C [DEFLAZACORT]

Conditions: human gut metagenome, 24 h, 2 µM
Remark: another data set of the same source

Bacterial Biotransformation	Compound
Compound metabolized	Cc1ccc(-c2cc(C(F)(F)F)nn2-c2ccc(S(N)(=O)=O)cc2)cc1 [CELECOXIB]
Compound metabolized	CC(=O)OCC(=O)[C@@]12N=C(C)O[C@@H]1C[C@H]1[C@@H]3CCC4=CC(=O)C=C[C@]4(C)[C@H]3[C@@H](O)C[C@@]12C [DEFLAZACORT]

Conditions: human gut metagenome, 24 h, 2 µM
Remark: another data set of the same source

Bacterial Biotransformation	Compound
Compound metabolized	Cc1ccc(-c2cc(C(F)(F)F)nn2-c2ccc(S(N)(=O)=O)cc2)cc1 [CELECOXIB]
Compound metabolized	CC(=O)OCC(=O)[C@@]12N=C(C)O[C@@H]1C[C@H]1[C@@H]3CCC4=CC(=O)C=C[C@]4(C)[C@H]3[C@@H](O)C[C@@]12C [DEFLAZACORT]

Conditions: human gut metagenome, 24 h, 2 µM
Remark: another data set of the same source

Bacterial Biotransformation	Compound
Compound metabolized	Cc1ccc(-c2cc(C(F)(F)F)nn2-c2ccc(S(N)(=O)=O)cc2)cc1 [CELECOXIB]
Compound metabolized	CC(=O)OCC(=O)[C@@]12N=C(C)O[C@@H]1C[C@H]1[C@@H]3CCC4=CC(=O)C=C[C@]4(C)[C@H]3[C@@H](O)C[C@@]12C [DEFLAZACORT]

Assay: as §1, with “Z-030” for “Z-025”, “mouse” for “rabbit”, “ERS12561829” for “ERS12561824”
Conditions: 2 µM

Bacterial Biotransformation	Compound
Compound NOT metabolized	Cc1ccc(-c2cc(C(F)(F)F)nn2-c2ccc(S(N)(=O)=O)cc2)cc1 [CELECOXIB]
Compound metabolized	CC(=O)OCC(=O)[C@@]12N=C(C)O[C@@H]1C[C@H]1[C@@H]3CCC4=CC(=O)C=C[C@]4(C)[C@H]3[C@@H](O)C[C@@]12C [DEFLAZACORT]

Conditions: human gut metagenome, 24 h, 2 µM
Remark: another data set of the same source

Bacterial Biotransformation	Compound
Compound NOT metabolized	Cc1ccc(-c2cc(C(F)(F)F)nn2-c2ccc(S(N)(=O)=O)cc2)cc1 [CELECOXIB]
Compound metabolized	CC(=O)OCC(=O)[C@@]12N=C(C)O[C@@H]1C[C@H]1[C@@H]3CCC4=CC(=O)C=C[C@]4(C)[C@H]3[C@@H](O)C[C@@]12C [DEFLAZACORT]

Conditions: human gut metagenome, 24 h, 2 µM
Remark: another data set of the same source

Bacterial Biotransformation	Compound
Compound NOT metabolized	Cc1ccc(-c2cc(C(F)(F)F)nn2-c2ccc(S(N)(=O)=O)cc2)cc1 [CELECOXIB]
Compound metabolized	CC(=O)OCC(=O)[C@@]12N=C(C)O[C@@H]1C[C@H]1[C@@H]3CCC4=CC(=O)C=C[C@]4(C)[C@H]3[C@@H](O)C[C@@]12C [DEFLAZACORT]

Conditions: human gut metagenome, 24 h, 2 µM
Remark: another data set of the same source

Bacterial Biotransformation	Compound
Compound metabolized	Cc1ccc(-c2cc(C(F)(F)F)nn2-c2ccc(S(N)(=O)=O)cc2)cc1 [CELECOXIB]
Compound metabolized	CC(=O)OCC(=O)[C@@]12N=C(C)O[C@@H]1C[C@H]1[C@@H]3CCC4=CC(=O)C=C[C@]4(C)[C@H]3[C@@H](O)C[C@@]12C [DEFLAZACORT]

Assay: as §1, with “WLS-086” for “Z-025”, “human” for “rabbit”, “ERS12561752” for “ERS12561824”
Conditions: 2 µM

Bacterial Biotransformation	Compound
Compound NOT metabolized	Cc1ccc(-c2cc(C(F)(F)F)nn2-c2ccc(S(N)(=O)=O)cc2)cc1 [CELECOXIB]
Compound metabolized	CC(=O)OCC(=O)[C@@]12N=C(C)O[C@@H]1C[C@H]1[C@@H]3CCC4=CC(=O)C=C[C@]4(C)[C@H]3[C@@H](O)C[C@@]12C [DEFLAZACORT]

Assay: as §1, with “Z-019” for “Z-025”, “rat” for “rabbit”, “ERS12561818” for “ERS12561824”
Conditions: 2 µM

Bacterial Biotransformation	Compound
Compound NOT metabolized	Cc1ccc(-c2cc(C(F)(F)F)nn2-c2ccc(S(N)(=O)=O)cc2)cc1 [CELECOXIB]
Compound NOT metabolized	CC(=O)OCC(=O)[C@@]12N=C(C)O[C@@H]1C[C@H]1[C@@H]3CCC4=CC(=O)C=C[C@]4(C)[C@H]3[C@@H](O)C[C@@]12C [DEFLAZACORT]

Assay: as §1, with “Z-023” for “Z-025”, “to” for “to rabbit gut”, “ERS12561822” for “ERS12561824”
Conditions: 2 µM

Bacterial Biotransformation	Compound
Compound NOT metabolized	Cc1ccc(-c2cc(C(F)(F)F)nn2-c2ccc(S(N)(=O)=O)cc2)cc1 [CELECOXIB]
Compound metabolized	CC(=O)OCC(=O)[C@@]12N=C(C)O[C@@H]1C[C@H]1[C@@H]3CCC4=CC(=O)C=C[C@]4(C)[C@H]3[C@@H](O)C[C@@]12C [DEFLAZACORT]

Conditions: human gut metagenome, 24 h, 2 µM
Remark: another data set of the same source

Bacterial Biotransformation	Compound
Compound NOT metabolized	Cc1ccc(-c2cc(C(F)(F)F)nn2-c2ccc(S(N)(=O)=O)cc2)cc1 [CELECOXIB]
Compound metabolized	CC(=O)OCC(=O)[C@@]12N=C(C)O[C@@H]1C[C@H]1[C@@H]3CCC4=CC(=O)C=C[C@]4(C)[C@H]3[C@@H](O)C[C@@]12C [DEFLAZACORT]

Assay: as §1, with “Z-016” for “Z-025”, “mouse” for “rabbit”, “ERS12561815” for “ERS12561824”
Conditions: 2 µM

Bacterial Biotransformation	Compound
Compound NOT metabolized	Cc1ccc(-c2cc(C(F)(F)F)nn2-c2ccc(S(N)(=O)=O)cc2)cc1 [CELECOXIB]
Compound metabolized	CC(=O)OCC(=O)[C@@]12N=C(C)O[C@@H]1C[C@H]1[C@@H]3CCC4=CC(=O)C=C[C@]4(C)[C@H]3[C@@H](O)C[C@@]12C [DEFLAZACORT]

Assay: as §1, with “WLS-310” for “Z-025”, “human” for “rabbit”, “ERS12561785” for “ERS12561824”
Conditions: 2 µM

Bacterial Biotransformation	Compound
Compound NOT metabolized	Cc1ccc(-c2cc(C(F)(F)F)nn2-c2ccc(S(N)(=O)=O)cc2)cc1 [CELECOXIB]
Compound metabolized	CC(=O)OCC(=O)[C@@]12N=C(C)O[C@@H]1C[C@H]1[C@@H]3CCC4=CC(=O)C=C[C@]4(C)[C@H]3[C@@H](O)C[C@@]12C [DEFLAZACORT]

Assay: as §1, with “Z-014” for “Z-025”, “rat” for “rabbit”, “ERS12561814” for “ERS12561824”
Conditions: 2 µM

Bacterial Biotransformation	Compound
Compound NOT metabolized	Cc1ccc(-c2cc(C(F)(F)F)nn2-c2ccc(S(N)(=O)=O)cc2)cc1 [CELECOXIB]
Compound metabolized	CC(=O)OCC(=O)[C@@]12N=C(C)O[C@@H]1C[C@H]1[C@@H]3CCC4=CC(=O)C=C[C@]4(C)[C@H]3[C@@H](O)C[C@@]12C [DEFLAZACORT]

Assay: as §1, with “Z-018” for “Z-025”, “pig” for “rabbit”, “ERS12561817” for “ERS12561824”
Conditions: 2 µM

Bacterial Biotransformation	Compound
Compound NOT metabolized	Cc1ccc(-c2cc(C(F)(F)F)nn2-c2ccc(S(N)(=O)=O)cc2)cc1 [CELECOXIB]
Compound metabolized	CC(=O)OCC(=O)[C@@]12N=C(C)O[C@@H]1C[C@H]1[C@@H]3CCC4=CC(=O)C=C[C@]4(C)[C@H]3[C@@H](O)C[C@@]12C [DEFLAZACORT]

Conditions: human gut metagenome, 24 h, 2 µM
Remark: another data set of the same source

Bacterial Biotransformation	Compound
Compound metabolized	Cc1ccc(-c2cc(C(F)(F)F)nn2-c2ccc(S(N)(=O)=O)cc2)cc1 [CELECOXIB]
Compound metabolized	CC(=O)OCC(=O)[C@@]12N=C(C)O[C@@H]1C[C@H]1[C@@H]3CCC4=CC(=O)C=C[C@]4(C)[C@H]3[C@@H](O)C[C@@]12C [DEFLAZACORT]

Conditions: human gut metagenome, 24 h, 2 µM
Remark: another data set of the same source

Bacterial Biotransformation	Compound
Compound metabolized	Cc1ccc(-c2cc(C(F)(F)F)nn2-c2ccc(S(N)(=O)=O)cc2)cc1 [CELECOXIB]
Compound metabolized	CC(=O)OCC(=O)[C@@]12N=C(C)O[C@@H]1C[C@H]1[C@@H]3CCC4=CC(=O)C=C[C@]4(C)[C@H]3[C@@H](O)C[C@@]12C [DEFLAZACORT]
